Biological target: 3-phosphoinositide-dependent protein kinase 1 (Homo sapiens) (UniProt O15530)
Assay: Inhibition of recombinant PDK1 (unknown origin)

COc1cc2ncnc(Nc3ccc(F)c(Cl)c3)c2cc1NC(=O)/C=C/CN1CCCCC1 [DACOMITINIB]
IC50: > 10 µM

Source: BindingDB's records for PubMed 18089823 (Harvard Medical School)
